One molecule from patent US7019034B2, “Compositions and methods for reducing serum glucose and triglyceride levels in diabetic mammals” (Allergan, Inc., priority 2003, dated 2006) can be followed below.

Each structure is given as a SMILES string.

Series [1] concerns the target T1, RXRα (Homo sapiens, UniProt P19793).
T1 construct: expressed in transfected cells
T1 sequence (P19793 1-462): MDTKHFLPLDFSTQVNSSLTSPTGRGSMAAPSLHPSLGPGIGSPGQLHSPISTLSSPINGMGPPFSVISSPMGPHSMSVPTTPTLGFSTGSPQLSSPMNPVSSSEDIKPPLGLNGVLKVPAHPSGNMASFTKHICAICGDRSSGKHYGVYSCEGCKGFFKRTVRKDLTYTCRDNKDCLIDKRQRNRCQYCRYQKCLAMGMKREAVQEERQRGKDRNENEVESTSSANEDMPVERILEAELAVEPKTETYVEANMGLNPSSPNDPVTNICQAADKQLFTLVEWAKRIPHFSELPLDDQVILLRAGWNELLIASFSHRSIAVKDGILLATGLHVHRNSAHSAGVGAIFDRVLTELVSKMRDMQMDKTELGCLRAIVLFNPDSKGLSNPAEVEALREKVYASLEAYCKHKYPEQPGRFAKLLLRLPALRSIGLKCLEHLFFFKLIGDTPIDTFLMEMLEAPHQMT
Put plainly: holoreceptor transactivation assay, RXRα. It is filed as cell-based. The conditions noted are these: number in brackets. The source says: A holoreceptor transactivation assay and a ligand binding assay which measure the antagonist/agonist like activity of the compounds of the invention, or their ability to bind to the several retinoid receptor subtypes, respectively, are described in published PCT Application No. WO WO93/11755 (particularly on pages 30–33 and 37–41) published on Jun. 24, 1993, the specification of which is also incorporated herein by reference. […] The results obtained in this assay are expressed in EC50 numbers, as they are also in the chimeric receptor transactivation assay. The results of the ligand binding assay are expressed in Ki numbers. (See Cheng et al. Biochemical Pharmacology Vol. 22 pp 3099–3108, expressly incorporated herein by reference.)
(§1) Particularly, the transactivation data pertaining to activation of the RAR receptors were obtained in the chimeric assay, and the transactivation data pertaining to the activation of RXR receptors were obtained in the holoreceptor assay.
(§2) In Table 1 NA stands for not active at all as an agonist. ND stands for not determined. The first row of numbers pertaining to each compound is the measured EC50 number. […] The third row of numbers pertaining to each compound is the binding Ki number.

Series [2] concerns the target T2, RXRβ (UniProt P28704).
T2 sequence (P28704 1-520): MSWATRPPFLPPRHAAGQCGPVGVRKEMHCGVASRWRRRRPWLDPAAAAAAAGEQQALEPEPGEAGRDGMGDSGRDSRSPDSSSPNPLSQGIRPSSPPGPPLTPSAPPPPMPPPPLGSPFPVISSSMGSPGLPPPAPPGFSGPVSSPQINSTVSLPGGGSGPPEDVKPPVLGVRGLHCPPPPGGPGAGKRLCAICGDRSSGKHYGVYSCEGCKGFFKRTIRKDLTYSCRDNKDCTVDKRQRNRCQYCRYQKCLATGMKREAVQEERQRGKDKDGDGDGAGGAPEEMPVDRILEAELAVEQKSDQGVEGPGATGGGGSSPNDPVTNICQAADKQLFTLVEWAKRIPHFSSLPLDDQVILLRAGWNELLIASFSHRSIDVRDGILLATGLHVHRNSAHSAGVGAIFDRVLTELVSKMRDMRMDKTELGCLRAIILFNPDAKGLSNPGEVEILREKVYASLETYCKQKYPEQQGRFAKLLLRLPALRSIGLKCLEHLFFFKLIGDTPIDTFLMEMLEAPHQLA
Kind of series: holoreceptor transactivation assay, RXRβ. It counts as cell-based.
Description: The results obtained in this assay are expressed in EC50 numbers, as they are also in the chimeric receptor transactivation assay. The results of the ligand binding assay are expressed in Ki numbers.
as §1, §2

Series [3] concerns diabetic db/db mice. Put plainly: serum glucose in diabetic db/db mice, 7 days oral dosing. It counts as in vivo. The conditions noted are these: for Glucose: 10 mg/kg once daily oral gavage, mean +/- SD. How it is done:
(§3) Effects of RXR agonists on serum glucose and triglyceride were studied in diabetic db/db mice. […] Briefly, animals were dosed once daily by oral gavage using corn oil vehicle for a period of 7 consecutive days. Serum samples were collected on day 1 (first day of dosing) and day 7 at hour 0 (immediately prior to dosing) and hour 3 (approximately 3 hours after dosing). Serum glucose and triglyceride levels of these samples were measured as described in the reference manuals: Glucose/HK. Boehringer Mannheim Corporation, 9115 Hague Road, Indianapolis, Ind., USA and Triglycerides/GPO. Roche Diagnostics Corporation, 9115 Hague Road, Indianapolis, Ind., USA, expressly incorporated herein. Only those animals with glucose levels of higher than 300 mg/dl at 0 hour on day 1 were considered as diabetic and included in data analysis.
(§4) A measured amount of dosing solution was withdrawn into a metal feeding tube attached to a marked syringe. Animals were restrained by grasping of their back skin while the feeding tube was gently inserted into their mouth and into esophagus. A fixed amount of the dosing solution was displaced into the esophagus/stomach of the animal by pushing the plunger of the syringe. Serum samples were collected from the retro-orbital sinus while the animals were anesthetized. These samples were analyzed by using commercially available kits from Boehringer Manheim for their glucose levels and Roche Diagnostics for their triglyceride levels in a Boehringer Manheim Hatachi Clinical Chemistry Analyzer.
(§5) For glucose assay, an enzymatic reaction using hexokinase and glucose-6-phosphodehydrogenase to catalyze glucose to gluconate-6phosphate and NADPH was employed. The amount of NADPH formed during these reactions was equivalent to the amount of glucose in the serum and was measured with a spectrophotometer. For triglycerides, a series of enzymatic reactions which included lipase, glycerol kinase and glycerol phosphate oxidase to formed dihydroacetone phosphate and peroxidase. The peroxidase produced catalyzed a reaction between peroxide and 4-aminophenazone and 4-chlorophenol in a Trinder reaction to generate a color change. This color change was measured by a spectrophotometer and reflected the amount of triglyceride in the sample.

In series [4] the test system is diabetic db/db mice. Put plainly: serum triglycerides in diabetic db/db mice, 7 days oral dosing. It is filed as in vivo. The conditions noted are these: for Triglycerides: 10 mg/kg once daily oral gavage, mean +/- SD. How it is done:
as §3, §4, §5

Series [5] concerns young db/db mice. Kind of series: serum thyroxine (T4) in young db/db mice, 14 days oral dosing. It is filed as in vivo. As to the method:
In another study the efficacy of RXR agonists in the prevention of diabetes was tested in young db/db mice. […] Serum samples were analyzed by using commercially available kits from Boehring Manheim for their thyroxine (T4) levels in a Boehringer Manheim Hatachi Clinical Chemistry Analyzer as described in the reference manual of Boehringer Mannheim Corporation, 9115 Hague Road, Indianapolis, Ind., USA, expressly incorporated herein.

Where [6] appears, read: Day 1, 0 hr (immediately prior to dosing).

Regarding `CC(/C=C/[C@@H]1C[C@]1(C)c1ccc2c(c1)C(C)(C)CCC2(C)C)=C\C(=O)O` [Standard compound, (2E,4E,1′S,2′S)-3-methyl-5-[2′-methyl-2′-(5,5,8,8-tetramethyl-5,6,7,8-tetrahydro-naphthalen-2-yl)-cyclopropyl]-penta-2,4-dienoic acid, reference compound], the “RXR α efficacy in percentage as compared to the standard compound” value in series [1] is on record as 100%. In addition, in series [2], the “RXR β efficacy in percentage as compared to the standard compound” value was 0.4(100)1%. Further, the “efficacy in activating RXRβ compared with RXRα and RXRγ subtypes (in words)” value in series [2] was “approximately equally efficacious in activating the RXRα, RXRβ and RXRγ subtypes”. The Glucose in series [3] (setting [6]) was 501 ± 87 mg/dL; in series [3] (Day 1, 3 hr), 403 ± 86 mg/dL; in series [3] (Day 7, 0 hr), 367 ± 101 mg/dL; in series [3] (Day 7, 3 hr), 301 ± 40 mg/dL. Further, the “effect on serum glucose in diabetic mouse (in words)” value in series [3] (mouse, in vivo) was “capable of lowering serum glucose”. The Triglycerides in series [4] (setting [6]) was 183 ± 50 mg/dL; in series [4] (Day 1, 3 hr) it was 220 ± 87 mg/dL; in series [4] (Day 7, 0 hr) it was 137 ± 32 mg/dL. Moreover, the “effect on serum triglyceride (in words)” value in series [4] (mouse, in vivo) is “induces hypertriglyceridemia”. For the same molecule, the Serum thyroxine in series [5] (5 mg/kg orally for 14 days, mean +/- SD (n = 7)) was 0.83 ± 0.29 µg/dL. The “effect on serum T4 (in words)” value in series [5] (mouse, in vivo) is given as “lowering serum T4”.
